Assays:
T7 RNA polymerase = T7 RNA polymerase (Escherichia phage T7, UniProt P00573); test: In vitro transcription yield of mRNA using cap analogs; assay type: biochemical; details: for Yield per unit template: in vitro transcription, 1 μg DNA template, 37° C., 2 hours
Description: • (1) Capping synthesis using cap analogs
The plasmid was first linearized with plasmid linearizing enzyme, and then the linearized plasmid was purified. • (2) In vitro transcription and synthesis of mRNA
During the experiment, the volume of materials required for the system was first calculated, and then sample addition was conducted. The system was first added with sterile enzyme-free water, followed by the sequential addition of 10× buffer, NTPs, and cap analogs, mixed well, and gently centrifuged. Nuclease inhibitors, inorganic pyrophosphatase, T7RNA polymerase, and linearized DNA templates were then added thereto. The system was mixed well, gently centrifuged, and incubated at 37° C. After 2 hours of incubation, the system was added with 1 U of DNase I and incubated at 37° C. for another 30 minutes. The mRNA precipitate was then washed with 75% ethanol, and after the ethanol was briefly evaporated to dryness, the mRNA was redissolved in sterile enzyme-free water. • (3) The transcription product was purified, and the in vitro transcription yield of mRNA was recorded. • (4) The obtained mRNA was subjected to an annealing reaction with a probe.

HEK293T cells = test: Translation efficiency of different capped luciferase mRNAs; assay type: cell-based; details: for Relative fluorescence intensity: HEK293T, 0.5 μg mRNA per well, 24 hours, proportional to translation efficiency; for Multiple of m6A (relative fluorescence intensity): relative to m6A; for Relative fluorescence intensity, times that of HN3002: relative to HN3002; for Relative fluorescence intensity, times that of N-7113: relative to N-7113; for Relative fluorescence intensity (translation efficiency), times that of YK-CAP-101: relative to YK-CAP-101; for Relative fluorescence intensity, times that of YK-CAP-102: relative to YK-CAP-102; for Relative fluorescence intensity, times that of YK-CAP-103: relative to YK-CAP-103; for Relative fluorescence intensity, times that of YK-CAP-104: relative to YK-CAP-104; for Relative fluorescence intensity, times that of YK-CAP-105: relative to YK-CAP-105; for Relative fluorescence intensity, times that of compound 14: relative to compound 14
Description: • (1) HEK293T cells were cultured in DMEM medium containing 10% FBS and penicillin/streptomycin at 37° C. with 5% CO2. • (2)Cells in the culture dish were digested and counted, then spread in a 96-well plate at 10,000 cells per well, and cultured overnight until the cells adhered to the wall. • (3) When the cell density reached approximately 80%, transfection was performed by adding 0.5 μg of mRNA sample and Lipofectamine MessengerMAX Transfection Reagent (Invitrogen) per well according to the manufacturer's instructions. • (4) After the transfected cells were cultured at 37° C. with 5% CO2 for 24 hours, the growth medium was removed from the cells to be tested, and the cells were rinsed with PBS. After centrifugation to remove PBS, 50 μL of 1× lysis buffer was added. The cells and all liquid were transferred to a microcentrifuge tube and centrifuged. • (5) 20 μL of sample was taken and added to 100 μL of Dual-Lumi™ II Luciferase Assay Reagent pre-equilibrated to room temperature, and mixed appropriately. • (6) The mixture was incubated at room temperature (approximately 25° C.) for 5 minutes to stabilize the luminescence signal. Chemiluminescence was detected using a multifunctional microplate reader with a function for detecting chemiluminescence, and the data were recorded.
The relative fluorescence intensity is proportional to the translation efficiency of mRNA.

[1] = Characterization of lipid nanoparticles encapsulating Fluc-mRNA prepared from different cap structures; assay type: physicochemical; details: for Particle size: LNP (YK-009/DSPC/cholesterol/DMG-PEG2000) with Fluc-mRNA transcribed using the named cap analog; for PDI: LNP with Fluc-mRNA transcribed using the named cap analog; for EE: encapsulation efficiency of LNP with Fluc-mRNA transcribed using the named cap analog
Description: Cationic lipid YK-009 (Beijing Youcare Kechuang Pharmaceutical Technology Co., Ltd.), DSPC (AVT (Shanghai) Pharmaceutical Technology Co., Ltd.), cholesterol (AVT (Shanghai) Pharmaceutical Technology Co., Ltd.), and DMG-PEG2000 were dissolved in ethanol at a molar ratio of 49:10:39.5:1.5, and the mRNA was diluted in 50 mM citrate buffer (pH=4). The ethanol lipid solution was mixed with the Fluc-mRNA aqueous solution prepared from different cap structures at a volume ratio of 1:3 using a microfluidic device at a flow rate of 10 mL/min to prepare LNPs at a weight ratio of total lipid to mRNA of approximately 15:1.
The resulting liposomes were diluted to 10-fold volume with PBS, and then ultrafiltered with a 300 KDa ultrafiltration tube to remove ethanol. The volume was then fixed to a certain volume with PBS. Finally, the LNPs were filtered through a 0.2 μm sterile filter to obtain an LNP preparation encapsulating Fluc-mRNA using YK-009/DSPC/cholesterol/DMG-PEG2000 (at a molar ratio of 49:10:39.5:1.5).
The particle size and polydispersity index (PDI) were determined by dynamic light scattering using a Malvern laser particle size analyzer. 10 μL of the liposome solution was taken, diluted to 1 mL with RNase-free deionized water, and added to a sample pool. Each sample was measured in triplicate. The measurement conditions were: a scattering angle of 90° and a temperature of 25° C. The encapsulation efficiency of LNPs was determined using the Quant-iT RiboGreen RNA Quantification Kit (Thermo Fisher Scientific, UK) according to the manufacturer's instructions.

Sequence of T7 RNA polymerase (P00573 whole entry): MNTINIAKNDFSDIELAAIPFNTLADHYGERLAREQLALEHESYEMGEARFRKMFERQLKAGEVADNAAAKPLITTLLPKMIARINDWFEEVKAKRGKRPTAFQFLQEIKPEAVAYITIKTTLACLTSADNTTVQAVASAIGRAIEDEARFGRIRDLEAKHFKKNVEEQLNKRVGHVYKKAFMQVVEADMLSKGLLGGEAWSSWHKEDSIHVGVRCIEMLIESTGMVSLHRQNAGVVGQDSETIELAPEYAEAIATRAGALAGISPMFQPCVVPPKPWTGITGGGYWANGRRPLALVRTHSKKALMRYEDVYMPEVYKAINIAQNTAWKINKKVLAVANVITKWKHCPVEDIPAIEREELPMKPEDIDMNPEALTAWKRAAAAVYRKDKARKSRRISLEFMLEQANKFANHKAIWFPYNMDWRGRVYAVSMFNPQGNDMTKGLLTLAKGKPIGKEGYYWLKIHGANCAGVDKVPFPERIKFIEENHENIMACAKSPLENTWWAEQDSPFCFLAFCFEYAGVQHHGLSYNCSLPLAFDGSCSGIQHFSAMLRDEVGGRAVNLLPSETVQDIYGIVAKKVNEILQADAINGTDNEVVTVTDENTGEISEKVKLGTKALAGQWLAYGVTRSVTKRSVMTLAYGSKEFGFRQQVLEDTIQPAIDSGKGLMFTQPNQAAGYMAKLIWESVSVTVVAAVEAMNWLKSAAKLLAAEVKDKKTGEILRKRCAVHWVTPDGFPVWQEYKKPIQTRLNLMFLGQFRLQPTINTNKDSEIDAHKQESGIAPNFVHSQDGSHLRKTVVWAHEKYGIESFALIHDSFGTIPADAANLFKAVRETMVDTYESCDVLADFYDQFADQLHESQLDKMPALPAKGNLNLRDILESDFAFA

Row | Structure (SMILES) | Yield per unit template (T7 RNA polymerase) [µg] | Increase relative to 5227 (in vitro transcription yield) (T7 RNA polymerase) [%] | Relative fluorescence intensity (HEK293T cells) | Multiple of m6A (relative fluorescence intensity) (HEK293T cells) | Particle size [1] [nm] | PDI [1] | EE [1] [%] | also measured
1 | CO[C@@H]1[C@H](OP(=O)(O)OC[C@H]2O[C@@H](n3cnc4c(=O)[nH]c(N)nc43)[C@H](O)[C@@H]2O)[C@@H](COP(=O)(O)OP(=O)(O)OP(=O)(O)OC[C@H]2OC([n+]3cn(C)c4c(=O)[nH]c(N)nc43)[C@H](O)[C@@H](O)[C@@H]2O)O[C@H]1n1cnc2c(N)ncnc21 (stereo partly shown) [YK-CAP-101] | 32.5 | −75.8 | 0.22 | 0.6 | 75.45 | 0.043 | 93.4 | 
2 | COC[C@]1(COP(=O)(O)OP(=O)(O)OP(=O)(O)OC[C@H]2O[C@@H](n3cnc4c(N)ncnc43)[C@H](OC)[C@@H]2OP(=O)(O)OC[C@H]2O[C@@H](n3cnc4c(=O)[nH]c(N)nc43)[C@H](O)[C@@H]2O)O[C@@H]([n+]2cn(C)c3c(=O)[nH]c(N)nc32)[C@H](O)[C@@H]1O [YK-CAP-117] | 153.2 | 14.2 | 1.82 | 4.8 | 72.56 | 0.044 | 94.3 | 
3 | COC(C)[C@H]1[C@@H](O)[C@H]([n+]2cn(C)c3c(=O)[nH]c(N)nc32)O[C@@H]1COP(=O)(O)OP(=O)(O)OP(=O)(O)OC[C@H]1O[C@@H](n2cnc3c(N)ncnc32)[C@H](OC)[C@@H]1OP(=O)(O)OC[C@H]1O[C@@H](n2cnc3c(=O)[nH]c(N)nc32)[C@H](O)[C@@H]1O (stereo partly shown) [YK-CAP-107] | 170.7 | 27.2 | 1.62 | 4.3 | 78.42 | 0.053 | 96.3 | 
4 | CO[C@@H]1[C@H](OP(=O)(O)OC[C@H]2O[C@@H](n3cnc4c(=O)[nH]c(N)nc43)[C@H](O)[C@@H]2O)[C@@H](COP(=O)(O)OP(=O)(O)OP(=O)(O)OC[C@H]2O[C@@H]([n+]3cn(C)c4c(=O)[nH]c(N)nc43)[C@H](O)[C@@H]2C(C)NC(C)=O)O[C@H]1n1cnc2c(N)ncnc21 (stereo partly shown) [YK-CAP-108] | 151.8 | 13.1 | 1.43 | 3.8 | 83.13 | 0.023 | 96.4 | 
5 | COC[C@@H]1[C@H](OP(=O)(O)OC[C@H]2O[C@@H](n3cnc4c(=O)[nH]c(N)nc43)[C@H](O)[C@@H]2O)[C@@H](COP(=O)(O)OP(=O)(O)OP(=O)(O)OC[C@H]2O[C@@H]([n+]3cn(C)c4c(=O)[nH]c(N)nc43)[C@H](O)[C@@H]2O)O[C@H]1n1cnc2c(N)ncnc21 [YK-CAP-113] | 166.1 | 23.8 | 1.63 | 4.3 | 79.34 | 0.043 | 96.1 | 
6 | CO[C@@H]1[C@H](OP(=O)(O)OC[C@H]2O[C@@H](n3cnc4c(=O)[nH]c(N)nc43)[C@H](O)[C@@H]2O)[C@@H](COP(=O)(O)OP(=O)(O)OP(=O)(O)OC[C@H]2O[C@@H]([n+]3cn(C)c4c(=O)[nH]c(N)nc43)[C@H](O)[C@@H]2C(F)F)O[C@H]1n1cnc2c(N)ncnc21 [YK-CAP-110] | 172.1 | 28.2 | 1.95 | 5.1 | 69.64 | 0.033 | 97.7 | Relative fluorescence intensity, times that of HN3002 (HEK293T cells): 1.7 times; Relative fluorescence intensity, times that of N-7113 (HEK293T cells): 1.9 times; Relative fluorescence intensity (translation efficiency), times that of YK-CAP-101 (HEK293T cells): 8.9 times; Relative fluorescence intensity, times that of YK-CAP-102 (HEK293T cells): 5.7 times; Relative fluorescence intensity, times that of YK-CAP-103 (HEK293T cells): 2.5 times; Relative fluorescence intensity, times that of YK-CAP-104 (HEK293T cells): 2.4 times; Relative fluorescence intensity, times that of YK-CAP-105 (HEK293T cells): 2.7 times; Relative fluorescence intensity, times that of compound 14 (HEK293T cells): 1.7 times
7 | CCN(CC)C(=O)[C@H]1[C@@H](O)[C@H]([n+]2cn(C)c3c(=O)[nH]c(N)nc32)O[C@@H]1COP(=O)(O)OP(=O)(O)OP(=O)(O)OC[C@H]1O[C@@H](n2cnc3c(N)ncnc32)[C@H](OC)[C@@H]1OP(=O)(O)OC[C@H]1O[C@@H](n2cnc3c(=O)[nH]c(N)nc32)[C@H](O)[C@@H]1O [YK-CAP-111] | 173.5 | 29.3 | 2.12 | 5.6 | 78.33 | 0.053 | 95.1 | Transcription yield, times that of YK-CAP-101 (T7 RNA polymerase; relative to YK-CAP-101): 5.3 times; Transcription yield, times that of YK-CAP-102 (T7 RNA polymerase; relative to YK-CAP-102): 3.9 times; Transcription yield, times that of YK-CAP-103 (T7 RNA polymerase; relative to YK-CAP-103): 2.0 times; Transcription yield, times that of YK-CAP-104 (T7 RNA polymerase; relative to YK-CAP-104): 2.4 times; Transcription yield, times that of YK-CAP-105 (T7 RNA polymerase; relative to YK-CAP-105): 2.1 times; In vitro transcription yield of mRNA higher than that of compound 14 (T7 RNA polymerase; relative to compound 14): 40.8%; Relative fluorescence intensity, times that of HN3002 (HEK293T cells): 1.9 times; Relative fluorescence intensity, times that of N-7113 (HEK293T cells): 2.1 times; Relative fluorescence intensity (translation efficiency), times that of YK-CAP-101 (HEK293T cells): 9.6 times; Relative fluorescence intensity, times that of YK-CAP-102 (HEK293T cells): 6.2 times; Relative fluorescence intensity, times that of YK-CAP-103 (HEK293T cells): 2.8 times; Relative fluorescence intensity, times that of YK-CAP-104 (HEK293T cells): 2.6 times; Relative fluorescence intensity, times that of YK-CAP-105 (HEK293T cells): 2.9 times; Relative fluorescence intensity, times that of compound 14 (HEK293T cells): 1.9 times
8 | CO[C@@H]1[C@H](OP(=O)(O)OC[C@H]2O[C@@H](n3cnc4c(=O)[nH]c(N)nc43)[C@H](O)[C@@H]2O)[C@@H](COP(=O)(O)OP(=O)(O)OP(=O)(O)OC[C@H]2O[C@@H]([n+]3cn(C)c4c(=O)[nH]c(N)nc43)[C@H](O)[C@]2(C)NC(C)=O)O[C@H]1n1cnc2c(N)ncnc21 [YK-CAP-106] | 155.5 | 15.9 | 1.53 | 4.0 | 68.24 | 0.048 | 97.1 | 
9 | CO[C@@H]1[C@H](OP(=O)(O)OC[C@H]2O[C@@H](n3cnc4c(=O)[nH]c(N)nc43)[C@H](O)[C@@H]2O)[C@@H](COP(=O)(O)OP(=O)(O)OP(=O)(O)OC[C@@]2(CF)O[C@@H]([n+]3cn(C)c4c(=O)[nH]c(N)nc43)[C@H](O)[C@@H]2O)O[C@H]1n1cnc2c(N)ncnc21 [YK-CAP-118] | 172.2 | 28.3 | 1.65 | 4.3 | 75.84 | 0.055 | 97.2 | 

Source: patent publication US12576099B2, “Ribose-modified cap analog and use thereof” (Beijing Youcare Kechuang Pharmaceutical Technology Co., Ltd., priority 2024, dated 2026)
